# Calls of active or inactive are those of the source. How the calls were made is not given here.
# Biological target: Trace amine-associated receptor 1 (Homo sapiens) (UniProt Q96RJ0)
# Assay: TAAR1 agonist activity of antagonist analogs, SAR follow-up, counter-screen for TAAR1 antagonist project, cell-based, fluorescence, human, MedChem round 2 (AID 1053182)
# Conditions: TAAR1-expressing cells, cAMP fluorescence agonist mode
# Chain of Trace amine-associated receptor 1 (Homo sapiens) (Q96RJ0 whole entry, looked up): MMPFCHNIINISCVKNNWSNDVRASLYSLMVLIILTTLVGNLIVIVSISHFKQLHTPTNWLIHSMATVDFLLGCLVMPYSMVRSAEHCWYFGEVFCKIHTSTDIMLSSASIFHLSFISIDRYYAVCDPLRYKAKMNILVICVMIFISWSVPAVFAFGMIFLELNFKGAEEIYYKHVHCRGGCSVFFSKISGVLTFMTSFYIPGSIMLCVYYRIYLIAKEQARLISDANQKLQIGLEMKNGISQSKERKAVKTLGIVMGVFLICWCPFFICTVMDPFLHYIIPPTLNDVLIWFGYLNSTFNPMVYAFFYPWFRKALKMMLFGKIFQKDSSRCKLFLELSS
row,EC50,SMILES
1,245 nM,CC(CN1CCCC1Cc1ccccc1)C(=O)c1ccc2c(c1)OCCO2 (configuration not stated)
2,100 nM,O=C(CCN1CCC(c2ccccc2)C1)c1ccccc1 (configuration not stated)
3,282 nM,Cc1ccc(C(=O)CCN2CCC(c3ccccc3)C2)cc1 (configuration not stated)
4,> 29900 nM (inactive),N#Cc1c(C(F)(F)F)cc(-c2ccc(Cl)cc2)nc1SCC(=O)Nc1ncccn1
5,> 29900 nM (inactive),N#Cc1c(C(F)(F)F)cc(-c2ccc(Cl)cc2)nc1SCC(=O)N1CCCCCC1
6,122 nM,COc1cc(C(=O)CCN2CCC(c3ccccc3)C2)cc(OC)c1OC (configuration not stated)
7,> 29900 nM (inactive),N#Cc1c(C(F)(F)F)cc(-c2ccc(Cl)cc2)nc1SCC(=O)N1CCCC1

# — PubChem BioAssay AID1053182 (The Scripps Research Institute Molecular Screening Center, 2014)
